In brackets after ≈: the same amount, converted by molar mass. Activity calls are given as the source filed them. No cut-off for these calls is given here.
Key:
[1] = test system: Candida albicans; experiment: Antifungal activity against fluconazole-resistant Candida albicans 102 assessed as inhibition of fungal growth measured for 24 hrs by CLSI based microdilution analysis; format: functional
[2] = test system: Aspergillus fumigatus; experiment: Antifungal activity against Aspergillus fumigatus CGMCC3 7795 assessed as reduction in fungal growth incubated for 48 hrs by CLSI based microdilution analysis; format: functional
[3] = test system: Candida albicans; experiment: Antifungal activity against fluconazole-resistant Candida albicans 13 assessed as inhibition of fungal growth measured for 24 hrs by CLSI based microdilution analysis; format: functional
[4] = test system: Candida parapsilosis; experiment: Antifungal activity against Candida parapsilosis ATCC 22019 assessed as reduction in fungal growth incubated for 24 hrs by CLSI based microdilution analysis; format: functional; details: Lodderomyces parapsilosis
[5] = test system: Candida albicans; experiment: Antifungal activity against fluconazole-resistant Candida albicans 24D assessed as inhibition of fungal growth measured for 24 hrs by CLSI based microdilution analysis; format: functional
[6] = biological target: T1, Lanosterol 14-alpha demethylase (Candida albicans (strain SC5314 / ATCC MYA-2876) (Yeast), UniProt P10613); experiment: Inhibition of CYP51 in Candida albicans […] assessed as decrease in unknown sterol biosynthesis level at 1 times MIC80 incubated for 16 hrs by GC-MS analysis relative to control
[7] = test system: Candida albicans; experiment: Antifungal activity against Candida albicans SC5314 assessed as reduction in fungal growth incubated for 24 hrs by CLSI based microdilution analysis; format: functional
[8] = test system: Candida albicans; experiment: Induction of resistance development in Candida albicans SC5314 assessed as increase in MIC treated over 8 serial passages by microdilution assay; format: functional
[9] = test system: CYP3A4; experiment: Selectivity index, ratio of MIC80 for antifungal activity against Candida albicans to IC50 for inhibition of CYP3A4 in human liver microsomes; format: toxicity; details: read-out: Selectivity Index
[10] = Hemolytic activity in mouse RBC assessed as hemolysis at 100 microg/ml incubated for 60 mins relative to control; format: toxicity, cell-based, Erythrocyte; details: red blood cells (erythrocytes), at 100 µg/mL, read-out: Activity
[11] = test system: Nakaseomyces glabratus; experiment: Antifungal activity against Candida glabrata ATCC 15126 assessed as reduction in fungal growth incubated for 24 hrs by CLSI based microdilution analysis; format: functional
[12] = biological target: T1, Lanosterol 14-alpha demethylase; experiment: Inhibition of CYP51 in Candida albicans […] assessed as decrease in ergosterol biosynthesis level at 1 times MIC80 incubated for 16 hrs by GC-MS analysis (Rvb=67.2%)
[13] = test system: Cryptococcus neoformans; experiment: Antifungal activity against Cryptococcus neoformans CGMCC3 1563 assessed as reduction in fungal growth incubated for 72 hrs by CLSI based microdilution analysis; format: functional
[14] = test system: Candida albicans; experiment: Antifungal activity against fluconazole-resistant Candida albicans 15 assessed as inhibition of fungal growth measured for 24 hrs by CLSI based microdilution analysis; format: functional
[15] = test system: Candida albicans; experiment: Induction of resistance development in Candida albicans SC5314 assessed as fold increase in MIC treated over 20 serial passages by microdilution assay; format: functional
[16] = test system: Candida albicans; experiment: Antifungal activity against fluconazole-resistant Candida albicans 901 assessed as inhibition of fungal growth measured for 24 hrs by CLSI based microdilution analysis; format: functional
[17] = test system: Meyerozyma guilliermondii; experiment: Antifungal activity against Meyerozyma guilliermondii ATCC 6260 assessed as reduction in fungal growth incubated for 24 hrs by CLSI based microdilution analysis; format: functional
[18] = test system: Candida tropicalis; experiment: Antifungal activity against Candida tropicalis ATCC 750 assessed as reduction in fungal growth incubated for 24 hrs by CLSI based microdilution analysis; format: functional
[19] = test system: Candida albicans; experiment: Antifungal activity against fluconazole-resistant Candida albicans 112869 assessed as inhibition of fungal growth measured for 24 hrs by CLSI based microdilution analysis; format: functional
[20] = test system: Candida albicans; experiment: In-vivo antifungal activity against multidrug-resistant Candida albicans 24D infected in ICR mouse model assessed as median survival time at 1 mg/kg, ip administered once daily pretreated for 24 hrs followed by infection and measured every 2 hrs for 5 days; format: functional; details: time 144 hrs
[21] = test system: Candida albicans; experiment: In-vivo antifungal activity against Candida albicans […] infected in ICR mouse model assessed as median survival time at 1 mg/kg, ip administered once daily pretreated for 24 hrs followed by infection and measured every 2 hrs for 5 days; format: functional; details: time 144 hrs
[22] = test system: Candida albicans; experiment: Potency index, ratio of fluconazole MIC80 to test compound MIC for antifungal activity against Candida albicans SC5314 assessed as reduction in fungal growth incubated for 24 hrs by CLSI based microdilution analysis; format: functional
[23] = test system: Candida albicans; experiment: Potency index, ratio of voriconazole MIC80 to test compound MIC for antifungal activity against Candida albicans SC5314 assessed as reduction in fungal growth incubated for 24 hrs by CLSI based microdilution analysis; format: functional
[24] = test system: Candida albicans; experiment: Potency index, ratio of itraconazole MIC80 to test compound MIC for antifungal activity against Candida albicans SC5314 assessed as reduction in fungal growth incubated for 24 hrs by CLSI based microdilution analysis; format: functional
[25] = test system: Candida albicans; experiment: In-vivo antifungal activity against Candida albicans […] infected in skin infected ICR mouse model assessed as reduction in fungal burden in skin at 1 mg/kg, ip pretreated for 24 hrs followed by infection and measured for 5 days by Periodic acid-Schiff staining based analysis; format: functional, organism-based; details: time 144.0 hrs
[26] = test system: Candida albicans; experiment: In-vivo antifungal activity against Candida albicans […] infected in skin infected ICR mouse model assessed as wound healing at 0.5 mg/kg, ip pretreated for 24 hrs followed by infection and measured for 5 days; format: functional, organism-based; details: time 144.0 hrs
[27] = test system: Aspergillus fumigatus; experiment: In-vivo antifungal activity against Aspergillus fumigatus CGMCC3 7795 infected in ip dosed ICR mouse model assessed as median survival time administered once daily pretreated for 24 hrs followed by infection and measured every 2 hrs for 5 days; format: functional, organism-based; details: dose 1.0 mg/kg, time 144.0 hrs
[28] = biological target: T1, Lanosterol 14-alpha demethylase; experiment: Inhibition of CYP51 in Candida albicans […] assessed as decrease in ergosterol biosynthesis level at 0.5 times MIC80 incubated for 16 hrs by GC-MS analysis (Rvb=67.2%)
[29] = Clearance in Sprague-Dawley rat at 2 mg/kg, iv measured at 0.08 to 24 hrs by LC-MS/MS analysis; format: ADME, organism-based; details: in vivo, time 0.08-24 hrs
[30] = biological target: T1, Lanosterol 14-alpha demethylase; experiment: Inhibition of CYP51 in Candida albicans […] assessed as decrease in unknown sterol biosynthesis level at 0.5 times MIC80 incubated for 16 hrs by GC-MS analysis relative to control
[31] = test system: Candida albicans; experiment: In-vivo antifungal activity against Candida albicans […] infected in skin infected ICR mouse model assessed as reduction in fungal burden in skin at 0.5 mg/kg, ip pretreated for 24 hrs followed by infection and measured for 5 days by Periodic acid-Schiff staining based analysis; format: functional, organism-based; details: time 144.0 hrs
[32] = AUC (0 to infinity) in Sprague-Dawley rat at 2 mg/kg, iv measured at 0.08 to 24 hrs by LC-MS/MS analysis; format: ADME, organism-based; parameters: time 0.08-24 hrs, dose 2 mg/kg, route iv; details: in vivo
[33] = biological target: Cytochrome P450 3A4 (Homo sapiens, UniProt P08684); experiment: Inhibition of CYP3A4 in human liver microsomes using testosterone as substrate preincubated for 5 mins followed by NADPH addition and measured after 5 mins by LC-MS/MS analysis; format: ADME, Microsome
[34] = test system: Candida albicans; experiment: In-vivo antifungal activity against Candida albicans […] infected in skin infected ICR mouse model assessed as wound healing at 1 mg/kg, ip pretreated for 24 hrs followed by infection and measured for 5 days; format: functional, organism-based; details: time 144.0 hrs
[35] = Half life in Sprague-Dawley rat at 2 mg/kg, iv measured at 0.08 to 24 hrs by LC-MS/MS analysis; format: ADME, organism-based; details: in vivo, time 0.08-24 hrs
[36] = biological target: T1, Lanosterol 14-alpha demethylase; experiment: Inhibition of CYP51 in Candida albicans SC3514 assessed as decrease in eburicol biosynthesis level at 0.5 times MIC80 incubated for 16 hrs by GC-MS analysis (Rvb=21.38%)
[37] = biological target: T1, Lanosterol 14-alpha demethylase; experiment: Inhibition of CYP51 in Candida albicans […] assessed as decrease in lanosterol biosynthesis level at 0.5 times MIC80 incubated for 16 hrs by GC-MS analysis relative to control

T1 sequence (P10613 whole entry): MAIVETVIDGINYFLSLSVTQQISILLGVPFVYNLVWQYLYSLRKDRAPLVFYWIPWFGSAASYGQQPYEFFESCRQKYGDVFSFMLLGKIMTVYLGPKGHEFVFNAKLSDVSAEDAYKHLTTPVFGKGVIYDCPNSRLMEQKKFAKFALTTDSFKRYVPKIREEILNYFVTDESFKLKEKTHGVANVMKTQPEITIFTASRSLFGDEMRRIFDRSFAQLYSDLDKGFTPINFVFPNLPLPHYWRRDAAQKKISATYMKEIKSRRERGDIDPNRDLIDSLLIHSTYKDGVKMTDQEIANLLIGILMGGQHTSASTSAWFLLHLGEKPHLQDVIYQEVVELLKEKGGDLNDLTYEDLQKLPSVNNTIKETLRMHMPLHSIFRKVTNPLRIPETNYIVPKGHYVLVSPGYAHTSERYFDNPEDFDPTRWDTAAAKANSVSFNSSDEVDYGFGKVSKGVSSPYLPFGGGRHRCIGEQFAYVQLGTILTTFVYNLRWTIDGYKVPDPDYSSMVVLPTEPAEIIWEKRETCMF
Cytochrome P450 3A4, sequence (P08684 whole entry): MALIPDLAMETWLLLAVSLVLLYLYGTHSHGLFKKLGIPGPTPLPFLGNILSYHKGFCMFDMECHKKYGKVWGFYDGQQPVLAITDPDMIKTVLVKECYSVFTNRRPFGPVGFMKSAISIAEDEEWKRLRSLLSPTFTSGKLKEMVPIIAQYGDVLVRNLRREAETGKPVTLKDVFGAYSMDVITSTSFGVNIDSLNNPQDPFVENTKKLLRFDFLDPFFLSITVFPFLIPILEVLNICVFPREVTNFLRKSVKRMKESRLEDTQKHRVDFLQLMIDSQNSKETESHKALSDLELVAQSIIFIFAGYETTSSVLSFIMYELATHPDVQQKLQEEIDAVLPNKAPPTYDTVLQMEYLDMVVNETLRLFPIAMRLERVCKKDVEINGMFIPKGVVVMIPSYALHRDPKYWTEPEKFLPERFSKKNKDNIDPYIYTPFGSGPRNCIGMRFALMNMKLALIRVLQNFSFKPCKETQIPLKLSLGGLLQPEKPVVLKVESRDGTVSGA

| Compound | MIC80 [1] | MIC80 [2] | MIC80 [3] | MIC80 [4] | MIC80 [5] | inhibition (INH) [6] | MIC80 [7] | selectivity ratio [9] | hemolysis at 1 h, 100 microg/ml [10] | MIC80 [11] | inhibition (INH) [12] | MIC80 [13] | MIC80 [14] | fold change (FC) [15] | MIC80 [16] | MIC80 [17] | MIC80 [18] | MIC80 [19] | Time [20] | Time [21] | also measured |
| --- | --- | --- | --- | --- | --- | --- | --- | --- | --- | --- | --- | --- | --- | --- | --- | --- | --- | --- | --- | --- | --- |
| OC(Cn1cncn1)(Cn1cncn1)c1ccc(F)cc1F [FLUCONAZOLE] | > 100 µg/mL | > 100 µg/mL | > 100 µg/mL | 1.25 µg/mL (≈ 4.08 µM) | > 100 µg/mL | 24.78% | 0.5 µg/mL (≈ 1.63 µM) | 25 | 1.7% | 2.5 µg/mL (≈ 8.16 µM) | 17.61% | 1.25 µg/mL (≈ 4.08 µM) | 32 µg/mL (≈ 104 µM) | 100 | > 100 µg/mL | 1.25 µg/mL (≈ 4.08 µM) | 2.5 µg/mL (≈ 8.16 µM) | > 100 µg/mL |  |  | fold change (FC) [8]: 10 |
| C[C@@H](c1ncncc1F)[C@](O)(Cn1cncn1)c1ccc(F)cc1F [VORICONAZOLE] | > 100 µg/mL | 0.312 µg/mL (≈ 0.893 µM) | 25 µg/mL (≈ 71.6 µM) | 0.062 µg/mL (≈ 0.177 µM) | > 100 µg/mL |  | 0.062 µg/mL (≈ 0.177 µM) |  |  | 0.312 µg/mL (≈ 0.893 µM) |  | 0.031 µg/mL (≈ 0.0887 µM) | 0.625 µg/mL (≈ 1.79 µM) |  | > 100 µg/mL | 0.062 µg/mL (≈ 0.177 µM) | 0.312 µg/mL (≈ 0.893 µM) | > 100 µg/mL | 9 days | 7 days |  |
| OC(CN1CCN(CCn2ccc3cc(Br)ccc32)CC1)(Cn1cncn1)c1ccc(F)cc1F (stereo not given) | 0.015 µg/mL (≈ 0.0275 µM) | 0.625 µg/mL (≈ 1.15 µM) | 0.015 µg/mL (≈ 0.0275 µM) | 0.015 µg/mL (≈ 0.0275 µM) | 0.031 µg/mL (≈ 0.0568 µM) |  | 0.015 µg/mL (≈ 0.0275 µM) |  | 1.2% | 0.156 µg/mL (≈ 0.286 µM) |  | 0.015 µg/mL (≈ 0.0275 µM) | 0.312 µg/mL (≈ 0.572 µM) |  | 1.25 µg/mL (≈ 2.29 µM) | 0.015 µg/mL (≈ 0.0275 µM) | 0.156 µg/mL (≈ 0.286 µM) | 0.062 µg/mL (≈ 0.114 µM) |  |  | Ratio [22]: 32; Ratio [23]: 4; Ratio [24]: 4 |
| O[C@@](CN1CCN(CCn2ccc3cc(Br)ccc32)CC1)(Cn1cncn1)c1ccc(F)cc1F | 0.015 µg/mL (≈ 0.0275 µM) | 0.625 µg/mL (≈ 1.15 µM) | 0.015 µg/mL (≈ 0.0275 µM) | 0.008 µg/mL (≈ 0.0147 µM) | 0.031 µg/mL (≈ 0.0568 µM) | 27.03% | 0.004 µg/mL (≈ 0.00733 µM) | 100 | 1.9% | 0.078 µg/mL (≈ 0.143 µM) | 5.41% | 0.015 µg/mL (≈ 0.0275 µM) | 0.312 µg/mL (≈ 0.572 µM) | 8 | 1.25 µg/mL (≈ 2.29 µM) | 0.015 µg/mL (≈ 0.0275 µM) | 0.078 µg/mL (≈ 0.143 µM) | 0.031 µg/mL (≈ 0.0568 µM) | 12 days | 6 days | Activity [25]: Active; Activity [26]: Active; Activity [27]: Dose-Dependent Effect; Activity [8]: Active; inhibition (INH) [28]: 33.33%; clearance [29]: 26.7 mL/min/kg; inhibition (INH) [30]: 14.9%; Activity [31]: Active; AUC(0-inf) [32]: 1260 ng·h/mL; IC50 [33]: 400 nM; Activity [34]: Active; half-life [35]: 1.04 h; inhibition (INH) [36]: 21.3%; inhibition (INH) [37]: 13.8% |

Source: ChEMBL document CHEMBL5338795, “Novel Triazoles with Potent and Broad-Spectrum Antifungal Activity In Vitro and In Vivo” (J Med Chem, 2023)
